Measurements from patent US4971962A, “Cephalosporin compounds” (Lucky, Ltd., priority 1988, dated 1990).
≈ marks a conversion by molar mass, not a printed value. Read-outs that look alike come from different tables or passages of the source.

Columns and labels:
[1] = system: Salmonella typhimurium ATCC 14028; assay: In-vitro antibacterial activity (MIC), two-fold dilution method; format: cell-based; conditions: Salmonella enterica, read-out: minimal inhibitory concentration (MIC)
Method: (§1) In-vitro antibacterial activity was determined by the two-fold dilution method as described below. 2 μl of the test microorganism which has the 10^7 CFU per ml was inoculated on the Muller-Hinton agar which has been dispersed by the test compound, and was incubated at 37° C. for 20 hours.

[2] = system: Bacillus subtilis ATCC 6633; assay: as above; format: cell-based; conditions: read-out: minimal inhibitory concentration (MIC)
Method: as §1

[3] = system: Klebsiella pneumoniae ATCC 10031; assay: as above; format: cell-based; conditions: read-out: minimal inhibitory concentration (MIC)
Method: as §1

[4] = system: Escherichia coli ATCC 10536; assay: as above; format: cell-based; conditions: read-out: minimal inhibitory concentration (MIC)
Method: as §1

[5] = system: Serratia marcescens ATCC 27117; assay: as above; format: cell-based; conditions: read-out: minimal inhibitory concentration (MIC)
Method: as §1

[6] = system: Pseudomonas aeruginosa ATCC 27853; assay: as above; format: cell-based; conditions: read-out: minimal inhibitory concentration (MIC)
Method: as §1

[7] = system: Pseudomonas aeruginosa ATCC 10145; assay: as above; format: cell-based; conditions: read-out: minimal inhibitory concentration (MIC)
Method: as §1

[8] = system: Staphylococcus aureus ATCC 10537; assay: as above; format: cell-based; conditions: read-out: minimal inhibitory concentration (MIC)
Method: as §1

[9] = system: Proteus mirabilis ATCC 25933; assay: as above; format: cell-based; conditions: read-out: minimal inhibitory concentration (MIC)
Method: as §1

[10] = system: Enterobacter aerogenes ATCC 29751; assay: as above; format: cell-based; conditions: Klebsiella aerogenes, read-out: minimal inhibitory concentration (MIC)
Method: as §1

[11] = system: Pseudomonas aeruginosa ATCC 25619; assay: as above; format: cell-based; conditions: read-out: minimal inhibitory concentration (MIC)
Method: as §1

[12] = system: gram-negative bacteria including Pseudomonas aeruginosa; assay: In-vitro antibacterial activity, comparison over gram-negative bacteria; format: cell-based; conditions: from Table 1
Method: as §1

[13] = system: gram-positive bacteria, especially, Staphylococcus aureus and Bacillus subtilis; assay: In-vitro antibacterial activity, comparison over gram-positive bacteria; format: cell-based; conditions: from Table 1
Method: as §1

[14] = rat (SD), i.v. 20 mg/kg, II Compartment; cited from earlier work
[15] = dog (Beagle), i.v. 20 mg/kg, II Compartment; cited from earlier work
[16] = monkey (Rhesus), i.v. 20 mg/kg, II Compartment; cited from earlier work
[17] = Pharmacokinetics of compound (Ib) in rat, intravenous, plasma by HPLC; format: in vivo, rat (Fischer); conditions: for half-life: rat, 14.29 mg/kg
Method: The pharmacokinetics of the invented compound (Ib) was studied in rat (Fischer, 6~10 weeks). The compound (Ib) was dissolved in phosphate bupper solution(0.05M; pH=9) and intraveneouly administered in a dose of 14.29 mg/kg to four rats, and blood samples from the rats were taken at 1, 5, 10 and 30 mins and 1, 2, 3, 5 and 7 hours after administration of the compound (Ib), respectively.
The concentrations in plasma were measured by HPLC analysis of blood samples, and the results of average concentrations in plasma were listed in Table 2.

[18] = Salmonella typhimurium ATCC 14028, Muller-Hinton agar, 37° C., 20 hours
[19] = Bacillus subtilis, ATCC6633, 20 h
[20] = ATCC10031, Klebsiella pneumoniae ATCC 10031, Muller-Hinton agar, 37° C., 20 hours
[21] = ATCC10536, Escherichia coli ATCC 10536, Muller-Hinton agar, 37° C., 20 hours
[22] = ATCC27117, Serratia marcescens ATCC 27117, Muller-Hinton agar, 37° C., 20 hours
[23] = ATCC27853, Pseudomonas aeruginosa ATCC 27853, Muller-Hinton agar, 37° C., 20 hours
[24] = ATCC10145, Pseudomonas aeruginosa ATCC 10145, Muller-Hinton agar, 37° C., 20 hours
[25] = Staphylococcus aureus, ATCC10537, 20 h
[26] = ATCC25933, Proteus mirabilis ATCC 25933, Muller-Hinton agar, 37° C., 20 hours
[27] = ATCC29751, Enterobacter aerogenes ATCC 29751, Muller-Hinton agar, 37° C., 20 hours
[28] = ATCC25619, Pseudomonas aeruginosa ATCC 25619, Muller-Hinton agar, 37° C., 20 hours
[29] = ATCC6633, Bacillus subtilis ATCC 6633, Muller-Hinton agar, 37° C., 20 hours
[30] = ATCC10537, Staphylococcus aureus ATCC 10537, Muller-Hinton agar, 37° C., 20 hours
[31] = Pseudomonas aeruginosa, ATCC10145, 20 h

| Structure (SMILES) | MIC [1, 18] | MIC [2, 19] | MIC [3, 20] | MIC [4, 21] | MIC [5, 22] | MIC [6, 23] | MIC [7, 24] | MIC [8, 25] | MIC [9, 26] | MIC [10, 27] | MIC [11, 28] | activity against gram-negative bacteria as compared with ceftazidime and moxalactam [12] | activity against gram-positive bacteria as compared with ceftazidime and moxalactam [13] | also measured |
| --- | --- | --- | --- | --- | --- | --- | --- | --- | --- | --- | --- | --- | --- | --- |
| CC(=O)OCC1=C(C(=O)O)N2C(=O)C(NC(=O)/C(=N\OCc3ccco3)c3csc(N)n3)C2SC1 (centres unmarked) [(Ia), 7-[(Z)-2-(2-Aminothiazol-4-yl)-2-(2-furfuryl-oxyimino)acetamido]-3-acetoxymethyl-3-cephem-4-carboxylic acid] | 2 µg/mL (≈ 3.83 µM) | 0.5 µg/mL (≈ 0.959 µM) | < 0.0312 µg/mL | 0.5 µg/mL (≈ 0.959 µM) | 1 µg/mL (≈ 1.92 µM) | 16 µg/mL (≈ 30.7 µM) | 16 µg/mL (≈ 30.7 µM) | 1 µg/mL (≈ 1.92 µM) | 0.125 µg/mL (≈ 0.24 µM) | 16 µg/mL (≈ 30.7 µM) | 1 µg/mL (≈ 1.92 µM) | almost equally active | superior antimicrobiral activities | – |
| Cn1nnnc1SCC1=C(C(=O)O)N2C(=O)C(NC(=O)/C(=N\OCc3ccco3)c3csc(N)n3)C2SC1 (centres unmarked) [(Ic), Sodium 7-[(Z)-2-(2-aminothiazol-4-yl)-2-(2-furfuryloxyimino)-acetamido]-3-[(1-methyl-1H-tetrazol-5-yl)thiomethyl]-3-cephem-4-carboxylate] | 2 µg/mL | – | < 0.0315 µg/mL | 0.5 µg/mL | 1 µg/mL | 16 µg/mL | 16 µg/mL | – | 0.25 µg/mL | 8 µg/mL | 1 µg/mL | almost equally active | superior antimicrobiral activities | MIC [2, 29]: 0.5 µg/mL; MIC [8, 30]: 1 µg/mL |
| CO/N=C(\C(=O)N[C@@H]1C(=O)N2C(C(=O)O)=C(COC(C)=O)CS[C@H]12)c1csc(N)n1 [Cefotaxime] | – | – | – | – | – | – | – | – | – | – | – | – | – | AUC [14]: 13500 ng·h/mL; T1/2 (α) [14]: 4.55 min; T1/2 (β) [14]: 14.8 min |
| CC(C)(O/N=C(\C(=O)N[C@@H]1C(=O)N2C(C(=O)[O-])=C(C[n+]3ccccc3)CS[C@H]12)c1csc(N)n1)C(=O)O [Ceftazidime, reference compound] | – | 16 µg/mL (≈ 29.3 µM) | – | – | – | – | – | 4 µg/mL (≈ 7.32 µM) | – | – | – | – | – | MIC ([1]; 20 h): 0.25 µg/mL (≈ 0.457 µM); MIC ([3]; Klebsiella pneumoniae, ATCC10031, 20 h): 0.125 µg/mL (≈ 0.229 µM); MIC ([4]; Escherichia coli, ATCC10536, 20 h): 0.125 µg/mL (≈ 0.229 µM); MIC ([5]; Serratia marcescens, ATCC27117, 20 h): 0.0625 µg/mL (≈ 0.114 µM); MIC ([6]; Pseudomonas aeruginosa, ATCC27853, 20 h): 2 µg/mL (≈ 3.66 µM); MIC [7, 31]: 2 µg/mL (≈ 3.66 µM); MIC ([9]; Proteus mirabilis, ATCC25933, 20 h): 0.0625 µg/mL (≈ 0.114 µM); MIC ([10]; ATCC29751, 20 h): 4 µg/mL (≈ 7.32 µM); MIC ([11]; Pseudomonas aeruginosa, ATCC25619, 20 h): 1 µg/mL (≈ 1.83 µM); AUC [15]: 93000 ng·h/mL |
| CO/N=C(\C(=O)N[C@@H]1C(=O)N2C(C(=O)O)=C(CSc3nc(=O)c(=O)[nH]n3C)CS[C@H]12)c1csc(N)n1 [Ceftriaxone] | – | – | – | – | – | – | – | – | – | – | – | – | – | AUC [16]: 838000 ng·h/mL; T1/2 (α) [16]: 23.16 min; T1/2 (β) [16]: 204 min; AUC [15]: 84300 ng·h/mL; T1/2 (α) [15]: 6.80 min; T1/2 (β) [15]: 50.7 min |
| Nc1nc(/C(=N/OCc2ccco2)C(=O)NC2C(=O)N3C(C(=O)[O-])=C(C[n+]4ccccc4)CSC23)cs1 (centres unmarked) [Compound (Ib), 7-[(Z)-2-(2-Aminothiazol-4-yl)-2-(2-furfuryl-oxyimino)acetamido]-3-(1-pyridiniummethyl)-3-cephem-4-carboxylate] | 2 µg/mL (≈ 3.7 µM) | – | 0.0625 µg/mL (≈ 0.116 µM) | 0.5 µg/mL (≈ 0.925 µM) | 0.5 µg/mL (≈ 0.925 µM) | 8 µg/mL (≈ 14.8 µM) | 8 µg/mL (≈ 14.8 µM) | 0.25 µg/mL (≈ 0.462 µM) | 0.5 µg/mL (≈ 0.925 µM) | 4 µg/mL (≈ 7.4 µM) | 1 µg/mL (≈ 1.85 µM) | almost equally active | superior antimicrobiral activities | AUC ratio to cefotaxime ([17]; Ib in rat vs cefotaxime in rat): 6.5 times; T1/2 (β) ratio to cefotaxime in rat ([17]; Ib in rat vs cefotaxime in rat): 6.4 times; T1/2 (β) ratio to ceftazidime or ceftriaxone in dog ([17]; Ib in rat vs ceftazidime or ceftriaxone in dog): 1.9 times; AUC ([17]; plasma, iv, rat (Fischer), i.v. 14.29 mg/kg, II Compartment): 62400 ng·h/mL; concentration at 1 min ([17]; plasma, iv, rat (Fischer), i.v. 14.29 mg/kg, average of four rats, 1 min): 112000 ng/mL; concentration at 5 min ([17]; plasma, iv, rat (Fischer), i.v. 14.29 mg/kg, average of four rats, 5 min): 60600 ng/mL; concentration at 10 min ([17]; plasma, iv, rat (Fischer), i.v. 14.29 mg/kg, average of four rats, 10 min): 43000 ng/mL; concentration at 0.5 h ([17]; plasma, iv, rat (Fischer), i.v. 14.29 mg/kg, average of four rats, 30 min): 20700 ng/mL; concentration at 1 h ([17]; plasma, iv, rat (Fischer), i.v. 14.29 mg/kg, average of four rats, 1 hr): 12600 ng/mL; concentration at 2 h ([17]; plasma, iv, rat (Fischer), i.v. 14.29 mg/kg, average of four rats, 2 hr): 6100 ng/mL; concentration at 3 h ([17]; plasma, iv, rat (Fischer), i.v. 14.29 mg/kg, average of four rats, 3 hr): 4300 ng/mL; concentration at 5 h ([17]; plasma, iv, rat (Fischer), i.v. 14.29 mg/kg, average of four rats, 5 hr): 1600 ng/mL; concentration at 7 h ([17]; plasma, iv, rat (Fischer), i.v. 14.29 mg/kg, average of four rats, 7 hr): 900 ng/mL; half-life ([17]; plasma, iv, rat (Fischer), i.v. 14.29 mg/kg, II Compartment, read-out: T1/2 (α)): 6.21 min; half-life ([17]; plasma, iv, rat (Fischer), i.v. 14.29 mg/kg, II Compartment, read-out: T1/2 (β)): 95 min; MIC [2, 29]: 0.25 µg/mL (≈ 0.462 µM) |
| CO[C@@]1(NC(=O)C(C(=O)O)c2ccc(O)cc2)C(=O)N2C(C(=O)O)=C(CSc3nnnn3C)CO[C@@H]21 (some centres unmarked) [Moxalactam, reference compound] | 0.25 µg/mL (≈ 0.48 µM) | 8 µg/mL (≈ 15.4 µM) | 0.25 µg/mL (≈ 0.48 µM) | 0.125 µg/mL (≈ 0.24 µM) | 0.125 µg/mL (≈ 0.24 µM) | 16 µg/mL (≈ 30.7 µM) | – | – | 0.25 µg/mL (≈ 0.48 µM) | 1 µg/mL (≈ 1.92 µM) | 8 µg/mL (≈ 15.4 µM) | – | – | MIC [7, 31]: 32 µg/mL (≈ 61.5 µM); MIC [8, 30]: 4 µg/mL (≈ 7.69 µM) |
